We go through seven compounds from patent publication US11109593B2, “Isoxazolin-5-one derivative and herbicide containing same as active ingredient” (HOKKO CHEMICAL INDUSTRY CO., LTD., priority 2017, dated 2021).

What all share (assay type): in vivo
Assay [1] relates to southern crabgrass. The experiment in a line: Test Example 4: herbicidal effect test by treatment of leave and stem in dry field farming (seven days after seeding). The following applies: 120 g/10a active ingredient; emulsion sprayed seven days after seeding; evaluated 14 days after treatment. In a few lines:
(§1)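 Weeds were seeded at 20 seeds per species into the top 1 cm of alluvial upland soil in pots, then sprayed 7 days after seeding with water-diluted emulsifiable concentrate at 100 L/10 a, giving 120 g active ingredient/10 a. Duplicate pots; herbicidal rate (%) was 14 days post-treatment, from dry weight versus untreated.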

For assay [2], the system named is Amaranthus viridis. The assay is described as above. The following applies: 120 g/10a active ingredient; emulsion sprayed seven days after seeding; evaluated 14 days after treatment. In a few lines:
as §1

Assay [3] has as its system Echinochloa crus-galli. Described as above. The note with it: 120 g/10a active ingredient; emulsion sprayed seven days after seeding; evaluated 14 days after treatment. In a few lines: as §1
The test system of assay [4] is Chenopodium album. The assay is described as above. The note with it: 120 g/10a active ingredient; emulsion sprayed seven days after seeding; evaluated 14 days after treatment. In a few lines:
as §1

Assay [5] deals with Scirpus juncoides. Description: Test Example 2: herbicidal effect test by treatment during growing period in paddy rice cultivation (seven days after seeding). The note with it: 120 g/10a active ingredient, assessed 14 days after treatment, dry weight vs untreated area. In a few lines:
(§2)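 Emulsion formulations, diluted in water, applied dropwise to flooded pots (about 3 cm water) 7 days post-seeding at 120 g a.i./10 ares. Weeds sown 30 seeds each, 0–1 cm deep in puddled paddy soil; greenhouse. Readout: % reduction in plant dry weight vs untreated, day 14, duplicates.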

The subject of assay [6] is broad leaf weeds (Lindernia pyxidaria and Monochoria vaginalis). Described as above. The following applies: 120 g/10a active ingredient, assessed 14 days after treatment, dry weight vs untreated area. In a few lines: as §2
The subject of assay [7] is Echinochloa crus-galli. Described as above. The following applies: 120 g/10a active ingredient, assessed 14 days after treatment, dry weight vs untreated area. In a few lines:
as §2

The subject of assay [8] is southern crabgrass. The experiment in a line: Test Example 3: herbicidal effect test by treatment of dry field farming soil (one day after seeding). The following applies: 120 g/10a active ingredient, evaluated 14 days after treatment. In a few lines: (§3)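 Herbicidal rate (%) = {1 − treated/untreated mean plant dry weight} × 100, scored 14 days after spraying, duplicate pots per concentration. Emulsified compound was water-diluted and applied to soil surface one day post-seeding at 120 g a.i. per 10 ares.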

The test system of assay [9] is Amaranthus viridis. The description is as above. The note with it: 120 g/10a active ingredient, evaluated 14 days after treatment. In a few lines:
as §3

In assay [10] the test system is Echinochloa crus-galli. The assay is described as above. The note with it: 120 g/10a active ingredient, evaluated 14 days after treatment. In a few lines: as §3
Assay [11] has as its system Chenopodium album. Described as above. The following applies: 120 g/10a active ingredient, evaluated 14 days after treatment. In a few lines:
as §3

The subject of assay [12] is Scirpus juncoides. The experiment in a line: Test Example 1: herbicidal effect test by treatment of rice paddy soil (immediately after seeding). The note with it: 120 g/10a active ingredient, dry weight vs untreated area, 14 days after treatment. In a few lines: (§4)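 Values are herbicidal rates (%) derived from average plant dry weight in treated versus untreated pots 14 days after treatment, run in duplicate. Treatment was a water-diluted emulsion dropped into flooded paddy soil right after sowing, at 120 g active ingredient per 10 ares.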

Assay [13] relates to broad leaf weeds (Lindernia pyxidaria and Monochoria vaginalis). The description is as above. The following applies: 120 g/10a active ingredient, dry weight vs untreated area, 14 days after treatment. In a few lines:
as §4

Assay [14] relates to Echinochloa crus-galli. Described as above. The note with it: 120 g/10a active ingredient, dry weight vs untreated area, 14 days after treatment. In a few lines:
as §4

For the compound `COCC(C)n1oc(=O)c(Cc2ccccc2N(C(=O)C(C)C)S(=O)(=O)C(F)(F)F)c1C` (stereo not shown) [Compound 1-335], in the assay on southern crabgrass [1], the “herbicidal effect (herbicidal rate), southern crabgrass” value (shortened to “herbicidal effect … southern crabgrass”) is recorded as 90%. Moreover, the “herbicidal effect (herbicidal rate), Amaranthus viridis” value (from here on “herbicidal effect … Amaranthus viridis”) in the assay on Amaranthus viridis [2] amounted to 40%. For the same compound, in the assay with Echinochloa crus-galli [3], the “herbicidal effect (herbicidal rate), Echinochloa crus-galli” value turned out to be 90%. The “herbicidal effect (herbicidal rate), Chenopodium album” value (“herbicidal effect … Chenopodium album” for short) in the assay with Chenopodium album [4] is listed as 40%. The “Herbicidal rate (%) Scirpus juncoides” value in the assay with Scirpus juncoides [5] and in the assay with Scirpus juncoides [12] was 90% each time. The “Herbicidal rate (%) Lindernia pyxidaria” value in assay [6] and in assay [13] was 90% in each case. In addition, the “Herbicidal rate (%) Monochoria vaginalis” value in assay [6] and in assay [13] was 90% in each case. Moreover, the “Herbicidal rate (%) Echinochloa crus-galli” value with Echinochloa crus-galli [7] and in the assay on Echinochloa crus-galli [14] was 90% each time. For the same compound, the “herbicidal rate, southern crabgrass” value in the assay with southern crabgrass [8] is 90%. Further, the “herbicidal rate, Amaranthus viridis” value with Amaranthus viridis [9] was found to be 90%. In the assay on Echinochloa crus-galli [10], the “herbicidal rate, Echinochloa crus-galli” value turned out to be 90%. The “herbicidal rate, Chenopodium album” value with Chenopodium album [11] amounted to 90%.
As to `CSCCn1oc(=O)c(Cc2ccccc2N(C(=O)C(C)C)S(=O)(=O)C(F)(F)F)c1C` [Compound 1-336], the “herbicidal effect … southern crabgrass” value in the assay with southern crabgrass [1] came out at 90%. Moreover, the “herbicidal effect … Amaranthus viridis” value in the assay with Amaranthus viridis [2] came out at 40%. Further, the “herbicidal effect (herbicidal rate), Echinochloa crus-galli” value in the assay on Echinochloa crus-galli [3] turned out to be 90%. Moreover, the “herbicidal effect … Chenopodium album” value with Chenopodium album [4] worked out at 40%. For the same compound, the “Herbicidal rate (%) Scirpus juncoides” value with Scirpus juncoides [5] and in the assay with Scirpus juncoides [12] was 90% each time. Further, the “Herbicidal rate (%) Lindernia pyxidaria” value in assay [6] and in assay [13] was 90% in each case. The “Herbicidal rate (%) Monochoria vaginalis” value in assay [6] and in [13] was 90% throughout. The “Herbicidal rate (%) Echinochloa crus-galli” value in the assay with Echinochloa crus-galli [7] and in the assay with Echinochloa crus-galli [14] was 90% in each case. In addition, the “herbicidal rate, southern crabgrass” value in the assay with southern crabgrass [8] was 90%. For the same compound, the “herbicidal rate, Amaranthus viridis” value in the assay on Amaranthus viridis [9] worked out at 90%. Also, the “herbicidal rate, Echinochloa crus-galli” value in the assay on Echinochloa crus-galli [10] amounted to 90%. For the same compound, in the assay on Chenopodium album [11], the “herbicidal rate, Chenopodium album” value is 90%.
As for `Cc1c(Cc2ccccc2N(C(=O)C(C)C)S(=O)(=O)C(F)(F)F)c(=O)on1C(C)c1ccccc1` (stereo not shown) [Compound 1-337], the “herbicidal effect … southern crabgrass” value in the assay with southern crabgrass [1] stood at 90%. Besides, in the assay on Amaranthus viridis [2], the “herbicidal effect … Amaranthus viridis” value was determined as 40%. The “herbicidal effect (herbicidal rate), Echinochloa crus-galli” value in the assay with Echinochloa crus-galli [3] is reported as 90%. Moreover, the “herbicidal effect … Chenopodium album” value in the assay with Chenopodium album [4] was 40%. Moreover, the “Herbicidal rate (%) Scirpus juncoides” value in the assay with Scirpus juncoides [5] and with Scirpus juncoides [12] was 90% throughout. Moreover, the “Herbicidal rate (%) Lindernia pyxidaria” value in [6] and in assay [13] was 90% in each case. Besides, the “Herbicidal rate (%) Monochoria vaginalis” value in assay [6] and in assay [13] was 90% in each case. Besides, the “Herbicidal rate (%) Echinochloa crus-galli” value with Echinochloa crus-galli [7] and in the assay with Echinochloa crus-galli [14] was 90% throughout. In addition, the “herbicidal rate, southern crabgrass” value in the assay on southern crabgrass [8] was 90%. Moreover, the “herbicidal rate, Amaranthus viridis” value in the assay on Amaranthus viridis [9] stood at 90%. Moreover, the “herbicidal rate, Echinochloa crus-galli” value with Echinochloa crus-galli [10] is on record as 90%. In addition, the “herbicidal rate, Chenopodium album” value with Chenopodium album [11] amounted to 90%.
Turning to `Cc1c(Cc2ccccc2N(C(=O)CC(C)C)S(=O)(=O)C(F)(F)F)c(=O)on1C(C)(C)C` [Compound 1-351], in the assay on southern crabgrass [1], the “herbicidal effect … southern crabgrass” value turned out to be 90%. For the same compound, the “herbicidal effect … Amaranthus viridis” value in the assay on Amaranthus viridis [2] was 40%. The “herbicidal effect (herbicidal rate), Echinochloa crus-galli” value with Echinochloa crus-galli [3] is listed as 90%. Moreover, the “herbicidal effect … Chenopodium album” value with Chenopodium album [4] is 40%. The “Herbicidal rate (%) Scirpus juncoides” value with Scirpus juncoides [5] and with Scirpus juncoides [12] was 90% throughout. The “Herbicidal rate (%) Lindernia pyxidaria” value in [6] and in [13] was 90% in each case. The “Herbicidal rate (%) Monochoria vaginalis” value in assay [6] and in assay [13] was 90% each time. For the same compound, the “Herbicidal rate (%) Echinochloa crus-galli” value in the assay with Echinochloa crus-galli [7] and in the assay on Echinochloa crus-galli [14] was 90% throughout. Besides, the “herbicidal rate, southern crabgrass” value in the assay on southern crabgrass [8] is listed as 90%. The “herbicidal rate, Amaranthus viridis” value in the assay on Amaranthus viridis [9] is on record as 90%. Moreover, the “herbicidal rate, Echinochloa crus-galli” value in the assay with Echinochloa crus-galli [10] stood at 90%. The “herbicidal rate, Chenopodium album” value in the assay with Chenopodium album [11] was 90%.
As to `CCC(C)n1oc(=O)c(Cc2ccccc2N(C(=O)CC(C)C)S(=O)(=O)C(F)(F)F)c1C` (stereo not shown) [Compound 1-352], the “herbicidal effect … southern crabgrass” value with southern crabgrass [1] is reported as 90%. Further, the “herbicidal effect … Amaranthus viridis” value in the assay on Amaranthus viridis [2] is reported as 40%. The “herbicidal effect (herbicidal rate), Echinochloa crus-galli” value in the assay with Echinochloa crus-galli [3] is 90%. Also, the “herbicidal effect … Chenopodium album” value in the assay on Chenopodium album [4] is listed as 40%. In addition, the “Herbicidal rate (%) Scirpus juncoides” value in the assay on Scirpus juncoides [5] and with Scirpus juncoides [12] was 90% in each case. Moreover, the “Herbicidal rate (%) Lindernia pyxidaria” value in assay [6] and in assay [13] was 90% throughout. The “Herbicidal rate (%) Monochoria vaginalis” value in assay [6] and in assay [13] was 90% each time. The “Herbicidal rate (%) Echinochloa crus-galli” value with Echinochloa crus-galli [7] and in the assay with Echinochloa crus-galli [14] was 90% in each case. Further, the “herbicidal rate, southern crabgrass” value in the assay on southern crabgrass [8] amounted to 90%. The “herbicidal rate, Amaranthus viridis” value in the assay with Amaranthus viridis [9] worked out at 90%. Further, the “herbicidal rate, Echinochloa crus-galli” value in the assay with Echinochloa crus-galli [10] amounted to 90%. Also, the “herbicidal rate, Chenopodium album” value with Chenopodium album [11] is reported as 90%.
For `CCC(CC)n1oc(=O)c(Cc2ccccc2N(C(=O)CC(C)C)S(=O)(=O)C(F)(F)F)c1C` [Compound 1-353], in the assay on southern crabgrass [1], the “herbicidal effect … southern crabgrass” value was found to be 90%. For the same compound, in the assay on Amaranthus viridis [2], the “herbicidal effect … Amaranthus viridis” value worked out at 40%. The “herbicidal effect (herbicidal rate), Echinochloa crus-galli” value with Echinochloa crus-galli [3] worked out at 90%. Moreover, the “herbicidal effect … Chenopodium album” value in the assay on Chenopodium album [4] is reported as 40%. The “Herbicidal rate (%) Scirpus juncoides” value in the assay on Scirpus juncoides [5] and with Scirpus juncoides [12] was 90% in each case. In addition, the “Herbicidal rate (%) Lindernia pyxidaria” value in [6] and in assay [13] was 90% in each case. The “Herbicidal rate (%) Monochoria vaginalis” value in assay [6] and in [13] was 90% throughout. Further, the “Herbicidal rate (%) Echinochloa crus-galli” value in the assay on Echinochloa crus-galli [7] and with Echinochloa crus-galli [14] was 90% each time. Moreover, the “herbicidal rate, southern crabgrass” value in the assay with southern crabgrass [8] stood at 90%. In the assay with Amaranthus viridis [9], the “herbicidal rate, Amaranthus viridis” value amounted to 90%. The “herbicidal rate, Echinochloa crus-galli” value in the assay on Echinochloa crus-galli [10] was 90%. Moreover, the “herbicidal rate, Chenopodium album” value in the assay on Chenopodium album [11] is 90%.
Take `Cc1c(Cc2ccccc2N(C(=O)CC(C)C)S(=O)(=O)C(F)(F)F)c(=O)on1CC(C)C` [Compound 1-354]: in the assay on southern crabgrass [1], the “herbicidal effect … southern crabgrass” value came out at 60%. For the same compound, in the assay on Amaranthus viridis [2], the “herbicidal effect … Amaranthus viridis” value is recorded as 40%. In addition, in the assay on Echinochloa crus-galli [3], the “herbicidal effect (herbicidal rate), Echinochloa crus-galli” value came out at 80%. Moreover, the “herbicidal effect … Chenopodium album” value in the assay on Chenopodium album [4] came out at 40%. In addition, the “Herbicidal rate (%) Scirpus juncoides” value with Scirpus juncoides [5] and in the assay on Scirpus juncoides [12] was 90% each time. Further, the “Herbicidal rate (%) Lindernia pyxidaria” value is 70% in assay [6] and 90% in assay [13]. The “Herbicidal rate (%) Monochoria vaginalis” value in [6] and in [13] was 90% throughout. Moreover, the “Herbicidal rate (%) Echinochloa crus-galli” value in the assay with Echinochloa crus-galli [7] and in the assay on Echinochloa crus-galli [14] was 100% each time. For the same compound, the “herbicidal rate, southern crabgrass” value in the assay with southern crabgrass [8] amounted to 80%. For the same compound, in the assay on Amaranthus viridis [9], the “herbicidal rate, Amaranthus viridis” value is 90%. Moreover, the “herbicidal rate, Echinochloa crus-galli” value in the assay with Echinochloa crus-galli [10] was determined as 90%. Moreover, the “herbicidal rate, Chenopodium album” value with Chenopodium album [11] is 90%.
